Assay results as given in article PMC9356076, “An Integrated Pharmacological Counselling Approach to Guide Decision-Making in the Treatment with CDK4/6 Inhibitors for Metastatic Breast Cancer” (Frontiers in Pharmacology, 2022).

Key:
[1] = cited from earlier work
[2] = test system: breast cancer resistance protein (BCRP); details: background statement, no reference given; cited from earlier work
P-glycoprotein (P-gp) = details: background statement, no reference given; cited from earlier work
[3] = test system: HR-positive/HER2-negative MBC patients; test: Adverse drug reactions in treated patients, graded by CTCAE Version 5.0; assay type: in vivo, human; details: palbociclib 100 mg/day
From the text: (§1) Our counselling service was already available for other KI used in oncology as imatinib, sorafenib, regorafenib, sunitinib, lenvatinib, and three PARP inhibitors: olaparib, niraparib, and rucaparib. Written informed consent was obtained for pharmacogenetic and TDM analyses and the publication of the here presented reports. Any potentially identifying information was omitted. Data concerning age, disease, stage, and molecular profiling, treatment regimen and setting, drug dose, adverse drug reactions, and coadministered treatments were retrieved from the electronic medical record upon patients’ reporting by the prescribing medical oncologist. Toxicities were retrospectively collected through clinical records revision and graded according to Common Terminology Criteria for Adverse Events (CTCAE) Version 5.0.

clinical = details: human
Description: (§2) Plasma was obtained by centrifugation at 2,450 g for 10 min at 4°C of whole blood EDTA tubes and stored at −80°C until analysis. Patients’ samples were analyzed with a newly developed LC-MS/MS method as previously reported ([Posocco et al., 2020]). Drug concentration was usually evaluated at specific time points, which allowed the evaluation of Cmin or Cmax at steady state. […] Last administration (self-reported) and sampling times were also recorded. According to the literature ([Verheijen et al., 2017]), the average exposure of the approved efficacious dose was used as a proxy of target Cmin and will be referred to as “target Cmin” in this article.
(§3) Descriptive statistics were used to present and analyze the TDM data. The mean population Cmin value reported in the literature for patients treated with the standard dose was used to evaluate the TDM target, and the ±20% intervals were calculated. This interval was based on acceptable variability of analytical data according to incurred sample reanalysis criteria ([FDA, 2018]; [EMA, 2022]). Patients who fell outside this range were considered to be potentially under or overexposed to the drugs.

[4] = Therapeutic drug monitoring: steady-state plasma concentration in patients by LC-MS/MS
Description: as §2, §3

[5] = test system: HR-positive/HER2-negative MBC patients; test: Patient's clinical outcome of CDKi treatment for metastatic breast cancer; assay type: in vivo, human
From the text: as §1

UGT = details: background statement, no reference given; cited from earlier work

Q: With `CCN1CCN(Cc2ccc(Nc3ncc(F)c(-c4cc(F)c5nc(C)n(C(C)C)c5c4)n3)nc2)CC1` [abemaciclib] as the molecule, how does the “proposed target Cmin” value ([1]; abemaciclib, MONARCH 3 patients, 132 mg/twice day, ref US Food and Drug Administration, 2017b) read?
A: The value was 181 ng/mL.

Q: And the “substrate of / transport by BCRP” value [2]?
A: Its value is “substrates”.

Q: What about the “substrate of the efflux transporter P-gp” value (P-glycoprotein (P-gp)) of the same molecule?
A: The value was “substrates”.

Q: For `N#Cc1ccc(C(c2ccc(C#N)cc2)n2cncn2)cc1` [letrozole], which “proposed Cmin target value” ([1]; letrozole, dedicated exposure-efficacy studies, ref FDA, 2021a) is on record?
A: Its value is 85.6 ng/mL.

Q: For `CC(=O)c1c(C)c2cnc(Nc3ccc(N4CCNCC4)cn3)nc2n(C2CCCC2)c1=O` [palbociclib], which “neutropenia grade after dose reduction” value ([3]; Case II) is on record?
A: The value was “grade 4”.

Q: What about the “neutropenia grade after dose reduction” value ([3]; Case V) of the same molecule?
A: Its value is “grade 3”.

Q: And the concentration at 24 h (clinical; plasma, oral)?
A: The concentration at 24 h was 49 to 73 ng/mL.

Q: What about the “Cmin (minimum plasma concentration)” value ([4]; Case I, palbociclib 75 mg/day + fulvestrant, steady state, 24 h after last intake) of the same molecule?
A: The value was 27.3 ng/ml (palbociclib 75 mg/day).

Q: What about the Cmin ([4]; Case II, after dose reduction to palbociclib 100 mg/day) of the same molecule?
A: Its Cmin is 62.3 ng/mL.

Q: What about the concentration at 24 h ([4]; human, plasma, oral, 100 mg/day) of the same molecule?
A: The concentration at 24 h was 62.3 ng/mL.

Q: And the “Patient's clinical outcome” value ([5]; Case I, palbociclib 75 mg/day + fulvestrant, II line)?
A: The value was “systemic PD”.

Q: And the “Patient's clinical outcome” value ([5]; Case I, palbociclib 75 mg/day + fulvestrant, II line, listed as Palbociclib)?
A: Its value is “Palbociclib treatment failure due to disease progression”.

Q: Which “reported mean Cmin (target population Cmin)” value ([1]; ribociclib standard dose 600 mg/day, ref FDA, 2021b) does the source give for `CN(C)C(=O)c1cc2cnc(Nc3ccc(N4CCNCC4)cn3)nc2n1C1CCCC1` [ribociclib] here?
A: The value was 732 ng/mL.

Q: And the “mean steady-state population Cmax” value ([1]; ribociclib)?
A: The value was 2,237 ng/ml.

Q: And the “substrate of / transport by BCRP” value [2]?
A: The value was “no noticeable transport”.

Q: And the “substrate of the efflux transporter P-gp” value (P-glycoprotein (P-gp))?
A: The value was “substrate”.

Q: And the concentration at 24 h (clinical; in vivo)?
A: The concentration at 24 h was 586 to 878 ng/mL.

Q: And the “glucuronidation reaction by UGT” value (UGT)?
A: Its value is “undergo a glucuronidation reaction”.

Q: And the “Patient's clinical outcome” value ([5]; Case III, ribociclib 600 mg/day reduced to 400 mg and then 200 mg, I line)?
A: The value was “disease progression”.

Q: And the “Patient's clinical outcome” value ([5]; Case III, ribociclib 600 mg/day reduced to 400 mg and then 200 mg, I line, listed as Ribociclib)?
A: The value was “The dose of ribociclib was reduced after more than 1 year of intermittent treatment due to toxicity. Ribociclib treatment ultimately failed”.
